Assays:
Format in all cases: cell-based, human
MAT2A [1] = assay: MAT2A mRNA levels by real-time PCR in HT-29 cells; conditions: for MAT2A mRNA levels after growth factor: growth factor 100 ng/ml
Experimental: (§1) HT-29 and RKO cells were obtained from the Cell Culture Core of the USC Liver Disease Research Center and grown according to instructions provided by the American Type Culture Collection (ATCC, Rockville, Md.). Prior to treatment with growth factors, SAMe or MTA, medium was changed to 0.1% FBS overnight.
RNA interference (RNAi) experiments were performed using Lipofectamine RNAiMax (Invitrogen) according to the manufacturer's instructions. Small interfering RNA (siRNA) oligonucleotides for MAT2A and scrambled siRNA were synthesized by the USC Norris Comprehensive Cancer Center Microchemical Core Laboratory, and annealed to form duplexes. Stealth RNAi for MAT2A and Stealth RNAi negative control duplexes were synthesized by Invitrogen (Carlsbad, Calif.). The following siRNA sequences were used: si-MAT2A #1, 5′-[…]-3′ (sense) and 5′-[…]-3′ (antisense); si-control with scrambled sequence (negative control siRNA having no perfect matches to known human genes), 5′-[…]dTdT-3′ (sense) and 5% […]dTdT-3′ (antisense); stealth RNAi-MAT2A #5, 5′-[…]-3′ (sense) and 5′-[…]-3′ (antisense). […]
(§2) Total RNA was isolated by the EZgeno total RNA isolation kit (Genemega, San Giego, Calif.), and subjected to reverse transcription (RT) by using M-MLV Reverse transcriptase (Invitrogen). 2 μl of RT product was subjected to quantitative real-time PCR analysis. The primers and TaqMan probes for MAT2A, MAT2β and Universal PCR Master Mix were purchased from ABI (Foster City, Calif.). Hypoxanthine phosphoribosyl-transferase 1 (HPRT1) and ubiquitin C (UBC) were used as housekeeping genes (48). The thermal profile consisted of 1 cycle at 95° C. for 15 minutes followed by 40 cycles at 95° C. for 15 seconds and at 60° C. for 1 minute. The expression of MAT2A and MAT2β was checked by normalizing the Ct of MAT2A and MAT2β to that of the control housekeeping gene (HPRT1 or UBC) (49). The delta Ct obtained was used to find the relative expression of MAT genes according to the formula: Relative expression=2·^ΔCt, where ΔCt=ΔCt of MAT genes in colon cancer or treated cells—ΔCt of MAT genes in normal colon or control cells.

HT-29 cells [2] = assay: Cell growth by MTT assay in HT-29 cells
Experimental: Cell growth was measured by the cell growth determination kit MTT from Sigma (St. Louis, Mo.). The MTT assay measures the cell proliferation rate and reduction in cell viability. HT-29 or RKO cells (1×10^4/well) were plated in 96-well plates and treated with growth factors (all 100 ng/ml), SAMe (0.5 to 5 mM), MTA (0.5 to 1 mM), alone or in combination for 16 hrs in serum-free medium. To determine the effect of MAT2A RNAi on mitogen-induced changes in MTT, cells were first treated with RNAi for 48 hrs followed by mitogen treatment for another 24 hrs.

RKO cells = assay: Apoptosis in RKO cells (HOECHST staining, Annexin V)
Experimental: Apoptosis was assessed by HOECHST staining (34). Briefly, RKO cells were grown on coverslips and treated with RNAi#1 for 24 hrs and cells were fixed with paraformaldehyde and stained with 8 μg/ml HOECHST 33258 dye for 30 min. Cells with bright, fragmented, condensed nuclei were identified as apoptotic cells using the Nikon Eclipse TE300 fluorescent microscope. At least 5 random fields (at ×300) were counted.
In these experiments the total treatment duration was limited to 16 hrs to avoid the apoptotic effect. […] Apoptosis was measured by Hoechst staining or Annexin V and propidium iodide staining on flow cytometry.

MAT2A [3] = assay: MAT2A mRNA levels by real-time PCR in RKO cells; conditions: for MAT2A mRNA levels after growth factor / MAT2A expression: RKO cells; for MAT2A mRNA levels after growth factor: growth factor 100 ng/ml
Experimental: as §1
RNA interference (RNAi) experiments were performed using Lipofectamine RNAiMax (Invitrogen) according to the manufacturer's instructions. Small interfering RNA (siRNA) oligonucleotides for MAT2A and scrambled siRNA were synthesized by the USC Norris Comprehensive Cancer Center Microchemical Core Laboratory, and annealed to form duplexes. Stealth RNAi for MAT2A and Stealth RNAi negative control duplexes were synthesized by Invitrogen (Carlsbad, Calif.). The following siRNA sequences were used: si-MAT2A #1, 5′-[…]-3′ (sense) and 5′-[…]-3′ (antisense); si-control with scrambled sequence (negative control siRNA having no perfect matches to known human genes), 5′-[…]dTdT-3′ (sense) and 5% […]dTdT-3′ (antisense); stealth RNAi-MAT2A #5, 5′-[…]-3′ (sense) and 5′-[…]-3′ (antisense). Transfection was allowed to proceed 72 hours before collection for different assays.
as §2

HT-29 cells [4] = assay: Cellular SAMe and MTA levels in HT-29 cells; conditions: mitogen 100 ng/ml
Experimental: as §1
(§3) Cellular SAMe and MTA levels were measured (51) and polyamine levels were determined (52).

HT-29 cells [5] = assay: Polyamine levels in HT-29 cells; conditions: 6 hrs, mitogen 100 ng/ml
Experimental: as §1, §3

[6] = system: ornithine decarboxylase (ODC); assay: ODC expression by real-time PCR in HT-29 cells; conditions: 6 hrs, mitogen 100 ng/ml
SPD syn = SPD syn expression by real-time PCR in HT-29 cells; conditions: 6 hrs, mitogen 100 ng/ml
[7] = system: spermine synthase (SPM syn); assay: SPM syn expression by real-time PCR in HT-29 cells; conditions: 6 hrs, mitogen 100 ng/ml

Substance	MAT2A mRNA levels after growth factor (MAT2A [1]; HT-29 cells)	MAT2A mRNA levels after growth factor (MAT2A [3])	MTA level (HT-29 cells [4]; 6 hrs) [nmol/mg protein]	MTA level (HT-29 cells [4]; 16 hrs) [nmol/mg protein]	SAMe level (HT-29 cells [4]; 16 hrs) [nmol/mg protein]	Putrescine (HT-29 cells [5]) [nmol/mg protein]	Spermidine (HT-29 cells [5]) [nmol/mg protein]	Spermine (HT-29 cells [5]) [nmol/mg protein]	ODC expression [6]	SPD syn expression (SPD syn)	SPM syn expression [7]	also measured
RNAi#5: stealth RNAi against MAT2A, sense 5′-CCACCUACAGCCAAGUGGCAGAUUU-3′ (antisense AAAUCUGCCACUUGGCUGUAGGUGG; chemistry not given here) [reference compound]												MAT2A mRNA level (MAT2A [1]; HT-29 cells, RNAi 48 hrs): 50 % of control; lowering of MAT2A expression (MAT2A [1]; at 72 hrs): 50%; lowering of MTT value (HT-29 cells [2]; HT-29 or RKO cells, RNAi 48 hrs then another 24 hrs): about 30%; mitogenic effect of leptin, IGF-1 and EGF (HT-29 cells [2]; RNAi 48 hrs, then growth factors 24 hrs): blocked the ability of leptin, IGF-1 and EGF to fully exert their mitogenic effect; apoptosis (RKO cells; after 24 hrs): No apoptosis was detected
IGF-1: insulin-like growth factor-1, mitogen	doubled	doubled	0.054 ± 0.003	0.087 ± 0.025	1.03 ± 0.03	0.22 ± 0.02	2.82 ± 0.09	12.55 ± 2.50	1.5 ± 0.08 fold of control	2.2 ± 0.20 fold of control	1.1 ± 0.03 fold of control	
EGF: Epidermal growth factor, mitogen	doubled	doubled	0.054 ± 0.001	0.061 ± 0.010	0.63 ± 0.06	0.32 ± 0.01	2.19 ± 0.23	12.55 ± 2.04	1.5 ± 0.07 fold of control	1.7 ± 0.08 fold of control	1.1 ± 0.02 fold of control	SAMe level (HT-29 cells [4]; 6 hrs): 0.54 ± 0.04 nmol/mg protein
RNAi#1: siRNA against MAT2A, sense 5′-ACACAUUGGAUAUGAUGAUTT-3′ (antisense AUCAUCAUAUCCAAUGUGUTT; chemistry not given here) [reference compound]												lowering of MAT2A expression (MAT2A [3]): 90%; MAT2A expression (MAT2A [3]; 24 hrs): 25 % of scrambled control; MAT2A expression (MAT2A [3]; 48 hrs): 9 % of scrambled control; apoptosis (RKO cells; 24 hrs of RNAi treatment): significant increase in apoptosis; apoptosis (RKO cells; 48 hrs of RNAi treatment): more pronounced

From US20100166727A1, “S-Adenosylmethionine And Methylthioadensosine In Chemoprevention And Treatment Of Colon Polyps And Cancer” (UNIVERSITY OF SOUTHERN CALIFORNIA, priority 2007, published 2010)
